Measured values taken from article PMC5218480 (PLoS ONE, 2017).

Tested on: MV-4-11 cells
Test: Gene expression microarray analysis (Affymetrix PrimeView) and GSEA
Assay type: cell-based, human
Design: RFU PODN (11730768_x_at) / Fold change /veh PODN (11730768_x_at) / RFU LINC00158 (11744669_a_at) / Fold change /veh LINC00158 (11744669_a_at) / RFU DUSP10 (11751237_a_at) / Fold change /veh DUSP10 (11751237_a_at) / RFU ID3 (11757404_x_at) / Fold change /veh ID3 (11757404_x_at) / RFU PLEKHG5 (11737974_s_at) / Fold change /veh PLEKHG5 (11737974_s_at) / RFU LRRC4B (11730491_at) / Fold change /veh LRRC4B (11730491_at) / RFU GIMAP4 (11747438_a_at) / Fold change /veh GIMAP4 (11747438_a_at) / RFU KRT8 (11758183_x_at) / Fold change /veh KRT8 (11758183_x_at) / RFU CNN1 (11734310_a_at) / Fold change /veh CNN1 (11734310_a_at) / RFU VPS37D (11726825_at) / Fold change /veh VPS37D (11726825_at) / RFU C10orf10 (11716522_x_at) / Fold change /veh C10orf10 (11716522_x_at) / RFU KIR2DL2 /// KIR2DL4 /// KIR2DL5A /// KIR2DL5B /// KIR2DS1 /// KIR2DS2 /// KIR2DS3 /// KIR2DS4 /// KIR3DL3 /// KIR3DL3 /// KIR3DS1 (11738374_at) / Fold change /veh KIR2DL2 /// KIR2DL4 /// KIR2DL5A /// KIR2DL5B /// KIR2DS1 /// KIR2DS2 /// KIR2DS3 /// KIR2DS4 /// KIR3DL3 /// KIR3DL3 /// KIR3DS1 (11738374_at) / RFU C1QL1 (11718748_at) / Fold change /veh C1QL1 (11718748_at) / RFU TMPRSS4 (11747572_a_at) / Fold change /veh TMPRSS4 (11747572_a_at) / RFU HAMP (11756126_x_at) / Fold change /veh HAMP (11756126_x_at) / RFU RNFT2 (11725882_a_at) / Fold change /veh RNFT2 (11725882_a_at) / RFU NR4A2 (11747474_a_at) / Fold change /veh NR4A2 (11747474_a_at) / RFU ABCC12 (11746883_a_at) / Fold change /veh ABCC12 (11746883_a_at) / RFU TMEM136 (11760407_x_at) / Fold change /veh TMEM136 (11760407_x_at) / RFU CLDN22 /// WWC2 (11732394_at) / Fold change /veh CLDN22 /// WWC2 (11732394_at) / RFU HLA-DPB1 (11760878_x_at) / Fold change /veh HLA-DPB1 (11760878_x_at) / RFU SPINT1 (11716480_a_at) / Fold change /veh SPINT1 (11716480_a_at) / RFU GAP43 (11754022_s_at) / Fold change /veh GAP43 (11754022_s_at) / RFU A4GNT (11735810_at) / Fold change /veh A4GNT (11735810_at) / RFU PRB3 (11715151_x_at) / Fold change /veh PRB3 (11715151_x_at) / RFU TUBB4B (11761932_at) / Fold change /veh TUBB4B (11761932_at) / RFU CAPN14 (11732068_a_at) / Fold change /veh CAPN14 (11732068_a_at) / RFU TMCC2 (11721928_a_at) / Fold change /veh TMCC2 (11721928_a_at) / RFU IRGQ (11745062_a_at) / Fold change /veh IRGQ (11745062_a_at) / RFU FAM174B (11720279_a_at) / Fold change /veh FAM174B (11720279_a_at) / RFU TMPRSS4 (11748680_a_at) / Fold change /veh TMPRSS4 (11748680_a_at) / RFU FAM212B (11763350_a_at) / Fold change /veh FAM212B (11763350_a_at) / RFU PLEKHG5 (11743358_a_at) / Fold change /veh PLEKHG5 (11743358_a_at) / RFU ZSCAN30 (11745921_a_at) / Fold change /veh ZSCAN30 (11745921_a_at) / RFU CMKLR1 (11741424_a_at) / Fold change /veh CMKLR1 (11741424_a_at) / RFU LOC101060620 /// MAPK8IP1 (11723275_at) / Fold change /veh LOC101060620 /// MAPK8IP1 (11723275_at) / RFU SPTSSB (11747773_x_at) / Fold change /veh SPTSSB (11747773_x_at) / RFU PRSS12 (11739890_at) / Fold change /veh PRSS12 (11739890_at) / RFU BIN1 (11741810_x_at) / Fold change /veh BIN1 (11741810_x_at) / RFU WNT11 (11732464_a_at) / Fold change /veh WNT11 (11732464_a_at) / RFU C10orf10 (11716521_a_at) / Fold change /veh C10orf10 (11716521_a_at) / RFU C5orf56 (11738089_at) / Fold change /veh C5orf56 (11738089_at) / RFU CYB561 (11721691_x_at) / Fold change /veh CYB561 (11721691_x_at) / RFU ANKRD19P (11752326_a_at) / Fold change /veh ANKRD19P (11752326_a_at) / RFU OR2T12 /// OR2T33 /// OR2T8 (11738714_s_at) / Fold change /veh OR2T12 /// OR2T33 /// OR2T8 (11738714_s_at) / RFU VCAN (11748164_a_at) / Fold change /veh VCAN (11748164_a_at) / RFU JSRP1 (11732532_at) / Fold change /veh JSRP1 (11732532_at) / RFU KRTAP10-11 (11738290_x_at) / Fold change /veh KRTAP10-11 (11738290_x_at) / RFU MYO3A (11730013_a_at) / Fold change /veh MYO3A (11730013_a_at) / RFU EBF3 (11725865_a_at) / Fold change /veh EBF3 (11725865_a_at) / RFU CAMK2N1 (11719241_x_at) / Fold change /veh CAMK2N1 (11719241_x_at) / RFU C5orf56 (11738088_a_at) / Fold change /veh C5orf56 (11738088_a_at) / RFU OLFML3 (11715873_a_at) / Fold change /veh OLFML3 (11715873_a_at) / RFU LOC100653217 /// NTM (11731650_a_at) / Fold change /veh LOC100653217 /// NTM (11731650_a_at) / RFU MAPK11 (11762145_a_at) / Fold change /veh MAPK11 (11762145_a_at) / RFU FIZ1 (11724087_x_at) / Fold change /veh FIZ1 (11724087_x_at) / RFU OASL (11726364_x_at) / Fold change /veh OASL (11726364_x_at) / RFU SOX15 (11748057_x_at) / Fold change /veh SOX15 (11748057_x_at) / RFU CD79A (11719716_a_at) / Fold change /veh CD79A (11719716_a_at) / RFU HIST1H1D (11736915_at) / Fold change /veh HIST1H1D (11736915_at) / RFU CASKIN2 (11723855_a_at) / Fold change /veh CASKIN2 (11723855_a_at) / RFU LOC730098 (11760151_x_at) / Fold change /veh LOC730098 (11760151_x_at) / RFU OR4N2 (11742367_at) / Fold change /veh OR4N2 (11742367_at) / RFU PRRT2 (11749266_a_at) / Fold change /veh PRRT2 (11749266_a_at) / RFU SNX32 (11753110_a_at) / Fold change /veh SNX32 (11753110_a_at) / RFU CDHR5 (11726645_a_at) / Fold change /veh CDHR5 (11726645_a_at) / RFU RCAN1 (11760418_a_at) / Fold change /veh RCAN1 (11760418_a_at) / RFU FAM167A (11723789_a_at) / Fold change /veh FAM167A (11723789_a_at) / RFU FAM26E (11764081_at) / Fold change /veh FAM26E (11764081_at) / RFU ISYNA1 (11749810_s_at) / Fold change /veh ISYNA1 (11749810_s_at) / RFU ACY1 (11761880_at) / Fold change /veh ACY1 (11761880_at) / RFU 11764098_at / Fold change /veh 11764098_at / RFU SAMD14 (11745864_x_at) / Fold change /veh SAMD14 (11745864_x_at) / RFU NPB (11741838_a_at) / Fold change /veh NPB (11741838_a_at) / RFU TMPRSS6 (11731388_a_at) / Fold change /veh TMPRSS6 (11731388_a_at) / RFU KRTAP10-2 (11738614_at) / Fold change /veh KRTAP10-2 (11738614_at) / RFU ARHGAP8 /// PRR5-ARHGAP8 (11727945_x_at) / Fold change /veh ARHGAP8 /// PRR5-ARHGAP8 (11727945_x_at) / RFU KRTAP5-7 /// NADSYN1 (11734609_at) / Fold change /veh KRTAP5-7 /// NADSYN1 (11734609_at) / RFU RASL12 (11751679_a_at) / Fold change /veh RASL12 (11751679_a_at) / RFU CDKN2B (11736163_a_at) / Fold change /veh CDKN2B (11736163_a_at) / RFU PRF1 (11729649_at) / Fold change /veh PRF1 (11729649_at) / RFU, ZNF638 /// ZNF638-IT1 / Fold change vs veh, ZNF638 /// ZNF638-IT1 / RFU, PANK3 / Fold change vs veh, PANK3 / RFU, SH3YL1 / Fold change vs veh, SH3YL1 / RFU, ZEB2 / Fold change vs veh, ZEB2 / RFU, NRIP1 / Fold change vs veh, NRIP1 / RFU, PTTG1IP / Fold change vs veh, PTTG1IP / RFU, CAPN2 / Fold change vs veh, CAPN2 / RFU, MED14 / Fold change vs veh, MED14 / RFU, SNORA58 / Fold change vs veh, SNORA58 / RFU, C1orf63 / Fold change vs veh, C1orf63 / RFU, LRRFIP1 / Fold change vs veh, LRRFIP1 / RFU, NDUFAF7 / Fold change vs veh, NDUFAF7 / RFU, SLC12A2 / Fold change vs veh, SLC12A2 / RFU, IBTK / Fold change vs veh, IBTK / RFU, ESF1 / Fold change vs veh, ESF1 / Fold change vs veh, TMEM50B / RFU, TAOK1 / Fold change vs veh, TAOK1 / RFU, ACBD3 / Fold change vs veh, ACBD3 / RFU, TMA16 / Fold change vs veh, TMA16 / RFU, RWDD3 / Fold change vs veh, RWDD3 / RFU, BCAT1 / Fold change vs veh, BCAT1 / RFU, EDEM3 / Fold change vs veh, EDEM3 / RFU, TMEM33 / Fold change vs veh, TMEM33 / RFU, WDR75 / Fold change vs veh, WDR75 / RFU, AHCTF1 / Fold change vs veh, AHCTF1 / RFU, TFRC / Fold change vs veh, TFRC / RFU, ZDHHC17 / Fold change vs veh, ZDHHC17 / RFU, NOM1 / Fold change vs veh, NOM1 / RFU, ARL8B / Fold change vs veh, ARL8B / RFU, ZBTB11 / Fold change vs veh, ZBTB11 / RFU, TAMM41 / Fold change vs veh, TAMM41 / RFU, KIAA1704 /// LOC100996395 / Fold change vs veh, KIAA1704 /// LOC100996395 / RFU, ING1 / Fold change vs veh, ING1 / RFU, TRMT61B / Fold change vs veh, TRMT61B / RFU, FUBP3 / Fold change vs veh, FUBP3 / RFU, TP53 / Fold change vs veh, TP53 / RFU, TNKS2 / Fold change vs veh, TNKS2 / RFU, ZFP14 / Fold change vs veh, ZFP14 / RFU, ACTR2 / Fold change vs veh, ACTR2 / RFU, PPP3R1 / Fold change vs veh, PPP3R1 / RFU, PIK3R1 / Fold change vs veh, PIK3R1 / RFU, HNRNPA1 / Fold change vs veh, HNRNPA1 / RFU, RNF170 / Fold change vs veh, RNF170 / RFU, ZNF28 / Fold change vs veh, ZNF28 / RFU, RNGTT / Fold change vs veh, RNGTT / RFU, OGT / Fold change vs veh, OGT / RFU, BRD1 / Fold change vs veh, BRD1 / RFU, MARS / Fold change vs veh, MARS / RFU, ZNF655 / Fold change vs veh, ZNF655 / RFU, FAHD1 / Fold change vs veh, FAHD1 / RFU, BDP1 / Fold change vs veh, BDP1 / RFU, LRRCC1 / Fold change vs veh, LRRCC1 / RFU, ARID1A / Fold change vs veh, ARID1A / RFU, ZNF146 / Fold change vs veh, ZNF146 / RFU, ZNF330 / Fold change vs veh, ZNF330 / RFU, GPN3 / Fold change vs veh, GPN3 / RFU, C9orf123 / Fold change vs veh, C9orf123 / RFU, N4BP2L2 / Fold change vs veh, N4BP2L2 / RFU, ARFIP1 / Fold change vs veh, ARFIP1 / RFU, FAM179B / Fold change vs veh, FAM179B / RFU, BCL10 / Fold change vs veh, BCL10 / RFU, UHRF1BP1L / Fold change vs veh, UHRF1BP1L / RFU, BET1 / Fold change vs veh, BET1 / RFU, CNOT2 / Fold change vs veh, CNOT2 / RFU, ZNF268 / Fold change vs veh, ZNF268 / Fold change vs veh, ZNF507 / RFU, DGCR2 / Fold change vs veh, DGCR2 / RFU, WDSUB1 / Fold change vs veh, WDSUB1 / Fold change vs veh, HSP90B1 /// MIR3652 / RFU, ADSS / Fold change vs veh, ADSS / RFU, GK / Fold change vs veh, GK / RFU, ZNF148 / Fold change vs veh, ZNF148 / RFU, TAF9 / Fold change vs veh, TAF9 / RFU, SLC1A5 / Fold change vs veh, SLC1A5 / RFU, SLMO2 / Fold change vs veh, SLMO2 / RFU, ABCC4 / Fold change vs veh, ABCC4 / RFU, LOC101060439 /// RAP1B / Fold change vs veh, LOC101060439 /// RAP1B / RFU, RFX7 / Fold change vs veh, RFX7 / RFU, GTPBP10 / Fold change vs veh, GTPBP10 / RFU, CNEP1R1 / Fold change vs veh, CNEP1R1 / RFU, BIVM-ERCC5 /// ERCC5 / Fold change vs veh, BIVM-ERCC5 /// ERCC5 / RFU, ILF3 / Fold change vs veh, ILF3 / RFU 11762660_at / Fold change /veh 11762660_at / RFU VCAN (11757783_s_at) / Fold change /veh VCAN (11757783_s_at) / RFU DDX43 (11728927_at) / Fold change /veh DDX43 (11728927_at) / RFU KRT8 (11758188_x_at) / Fold change /veh KRT8 (11758188_x_at) / RFU NKD1 (11759106_at) / Fold change /veh NKD1 (11759106_at) / RFU SRD5A1 (11742802_a_at) / Fold change /veh SRD5A1 (11742802_a_at) / RFU TPSAB1 /// TPSB2 (11721975_s_at) / Fold change /veh TPSAB1 /// TPSB2 (11721975_s_at) / RFU GSTM3 (11746129_a_at) / Fold change /veh GSTM3 (11746129_a_at) / RFU IL23R (11737362_x_at) / Fold change /veh IL23R (11737362_x_at) / RFU TMEM51 (11727254_a_at) / Fold change /veh TMEM51 (11727254_a_at) / RFU PIWIL2 (11732686_x_at) / Fold change /veh PIWIL2 (11732686_x_at) / RFU ORM1 (11744905_x_at) / Fold change /veh ORM1 (11744905_x_at) / RFU CCDC152 (11743942_at) / Fold change /veh CCDC152 (11743942_at) / RFU ECM1 (11717891_a_at) / Fold change /veh ECM1 (11717891_a_at) / RFU IL23R (11748794_a_at) / Fold change /veh IL23R (11748794_a_at) / RFU TNFAIP8L3 (11732012_x_at) / Fold change /veh TNFAIP8L3 (11732012_x_at) / RFU MBOAT4 (11741988_at) / Fold change /veh MBOAT4 (11741988_at) / RFU 11764193_at / Fold change /veh 11764193_at / RFU TMEM53 (11763286_at) / Fold change /veh TMEM53 (11763286_at) / RFU MAGEB2 (11727129_at) / Fold change /veh MAGEB2 (11727129_at) / RFU TMEM200A (11744735_a_at) / Fold change /veh TMEM200A (11744735_a_at) / RFU CCDC152 (11751479_a_at) / Fold change /veh CCDC152 (11751479_a_at) / RFU FAM211A (11726209_a_at) / Fold change /veh FAM211A (11726209_a_at) / RFU RGS16 (11746705_a_at) / Fold change /veh RGS16 (11746705_a_at) / RFU VCAN (11755009_s_at) / Fold change /veh VCAN (11755009_s_at) / RFU RHOB (11743442_s_at) / Fold change /veh RHOB (11743442_s_at) / RFU RGS16 (11720943_a_at) / Fold change /veh RGS16 (11720943_a_at) / RFU RGS16 (11720944_at) / Fold change /veh RGS16 (11720944_at) / RFU, VPS4B / Fold change vs veh, VPS4B / RFU, CREB1 / Fold change vs veh, CREB1 / RFU, DNAJC13 / Fold change vs veh, DNAJC13 / RFU, GNAQ / Fold change vs veh, GNAQ / RFU, CDK5R1 / Fold change vs veh, CDK5R1 / RFU, ZRANB3 / Fold change vs veh, ZRANB3 / RFU, CUL4A / Fold change vs veh, CUL4A / RFU, CCNY / Fold change vs veh, CCNY / RFU, UFL1 / Fold change vs veh, UFL1 / RFU, COG3 / Fold change vs veh, COG3 / RFU, DIAPH2 / Fold change vs veh, DIAPH2 / RFU, SKA2 / Fold change vs veh, SKA2 / RFU, AFF3 / Fold change vs veh, AFF3 / RFU, LMF1 / Fold change vs veh, LMF1 / RFU, IPO11 / Fold change vs veh, IPO11 / RFU, DFFB / Fold change vs veh, DFFB / RFU, FOXP1 / Fold change vs veh, FOXP1 / RFU, CARD8 / Fold change vs veh, CARD8 / RFU, STRN3 / Fold change vs veh, STRN3 / RFU, ADK / Fold change vs veh, ADK / RFU, RASSF2 / Fold change vs veh, RASSF2 / RFU, WIPF1 / Fold change vs veh, WIPF1 / RFU, LARP1B / Fold change vs veh, LARP1B / RFU, RASA1 / Fold change vs veh, RASA1 / RFU, RB1 / Fold change vs veh, RB1 / RFU, PPFIA1 / Fold change vs veh, PPFIA1 / RFU, MAT2A / Fold change vs veh, MAT2A / RFU, CCT5 / Fold change vs veh, CCT5 / RFU, WDR92 / Fold change vs veh, WDR92 / RFU, CUX1 / Fold change vs veh, CUX1 / RFU, TTC7A / Fold change vs veh, TTC7A / RFU, TMEM135 / Fold change vs veh, TMEM135 / RFU, DEPTOR / Fold change vs veh, DEPTOR / RFU, CPM / Fold change vs veh, CPM / RFU, DNAJB6 / Fold change vs veh, DNAJB6 / RFU, CACNA2D3 / Fold change vs veh, CACNA2D3 / RFU, DTX4 / Fold change vs veh, DTX4 / RFU, TFCP2 / Fold change vs veh, TFCP2 / RFU, GMCL1 /// GMCL1P1 / Fold change vs veh, GMCL1 /// GMCL1P1 / RFU, AEBP2 / Fold change vs veh, AEBP2 / RFU, SNHG1 /// SNORD22 /// SNORD25 /// SNORD26 /// SNORD27 /// SNORD28 /// SNORD29 /// SNORD31 / Fold change vs veh, SNHG1 /// SNORD22 /// SNORD25 /// SNORD26 /// SNORD27 /// SNORD28 /// SNORD29 /// SNORD31 / Fold change (Aza/veh), C12orf56 (ProbeSet 11735607_a_at) / Fold change (ACY-1035/veh), C12orf56 (ProbeSet 11735607_a_at) / Fold change (Aza/veh), FGFR1OP (ProbeSet 11751329_s_at) / Fold change (ACY-1035/veh), FGFR1OP (ProbeSet 11751329_s_at) / Fold change (Aza/veh), VPS36 (ProbeSet 11739960_a_at) / Fold change (ACY-1035/veh), VPS36 (ProbeSet 11739960_a_at) / RFU SYPL1 (11715823_x_at) / Fold change /veh SYPL1 (11715823_x_at) / RFU IGFBP7 (11715501_s_at) / Fold change /veh IGFBP7 (11715501_s_at) / RFU REEP3 (11722064_at) / Fold change /veh REEP3 (11722064_at) / RFU IGLL1 (11728026_x_at) / Fold change /veh IGLL1 (11728026_x_at): dose or concentration left out as unconfirmed
Details: MV-4-11 cells, 48 hours

Nc1ncn([C@@H]2O[C@H](CO)[C@@H](O)[C@H]2O)c(=O)n1 [azacitidine]
RFU LOC730098 (11760151_x_at): 36.57 RFU
